Results: patent US12281121B2, “N-containing heteroaryl derivative and pharmaceutical composition comprising same as active ingredient for prevention or treatment of cancer” (VORONOI Inc., priority 2019, dated 2025)

Key:
RET (WT) = molecular target: T1, RET (WT) (Homo sapiens, UniProt P07949); assay: RET enzyme inhibitory ability, ADP-Glo kinase assay; assay type: biochemical; details: ATP 10 μM, 25° C., 1 hour
T1 construct: human RET (658-end, SIGNALCHEM); purchased SIGNALCHEM
T1 sequence (P07949 658-1114 limits assumed): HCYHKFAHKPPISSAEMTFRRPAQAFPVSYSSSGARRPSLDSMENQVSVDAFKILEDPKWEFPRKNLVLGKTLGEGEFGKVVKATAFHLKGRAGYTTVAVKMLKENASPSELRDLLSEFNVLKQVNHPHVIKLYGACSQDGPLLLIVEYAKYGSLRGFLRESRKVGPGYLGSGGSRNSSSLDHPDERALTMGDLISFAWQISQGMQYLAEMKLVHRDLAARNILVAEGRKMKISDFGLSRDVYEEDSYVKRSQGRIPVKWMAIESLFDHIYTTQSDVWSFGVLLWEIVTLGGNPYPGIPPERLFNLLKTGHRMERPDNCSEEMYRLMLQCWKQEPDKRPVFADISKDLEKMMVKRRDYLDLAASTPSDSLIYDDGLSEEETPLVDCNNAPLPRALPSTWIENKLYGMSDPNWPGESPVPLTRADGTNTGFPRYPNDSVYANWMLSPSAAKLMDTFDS
Procedure: The Example compound was reacted with a purified human RET (658-end, SIGNALCHEM) enzyme to evaluate the enzyme inhibitory ability by the following method. As a reaction buffer, a composition of 40 mM Tris-HCl pH 7.4, 20 mM MgCl2, 0.5 mg/mL BSA, and 50 μM DTT was used, and all experimental materials were reacted on the reaction buffer. After the human RET (658-end, 0.8 ng) enzyme was reacted with purified ATP (10 μM) and a specific substrate solution at 25° C. for 1 hour during the experiment, the enzyme activity was confirmed using in vitro ADP-Glo™ kinase assay (Promega). Luminescence was measured by reacting the enzyme activity reaction solution, the ADP-Glo reaction solution, and the enzyme activity detection solution at a ratio of 2:2:1. The degree of inhibition of enzyme activity according to the treatment concentration of each compound was calculated based on the […] of the enzyme activity of a solvent control group in which a compound was not treated, and in this case, the concentration of each compound which suppresses the […] enzyme activity by 50% was determined as an IC50 (nM) value. The IC50 (nM) of each compound was determined by 3 datasets and obtained using Prism (version 7.01, GraphPad) software.
In the enzyme assay column, RET (WT) is a non-mutated form, RET (V804M) is a mutated form in which the V amino acid at position 804 of the RET is substituted with M, and CCDC6-RET is a form in which the RET (WT) gene and CCDC6 gene are fused.

Ba/F3 (naive) cells = assay: Cell proliferation inhibition, CellTiter-Glo; assay type: cell-based; details: Mus musculus, BaF3; Ba/F3 not transduced, 72 hours
Procedure: (§1) Among lung cancer cell lines, which express RET fusion genes, LC-2/ad cells were cultured after adding 10% FBS (HyClone) to RPMI:F12 (1:1) (Invitrogen), and F-12 (Invitrogen) supplemented with 10% FBS was used for TT cells. RPMI-1640 supplemented with 10% FBS and 5 ng/ml IL-3 (R&D Systems) was used for Ba/F3 cells. Transduced Ba/F3 cells were cultured by adding 1 ug/ml puromycin (Invitrogen) to the same medium. 24 hours before cells were treated with the compound, 3000 to 5000 cells were aliquoted into each well of a white clear bottom 96 well plate (Corning). The compound was diluted in DMSO (3-fold dilution, a total of 12 concentrations) and the compound was injected by 0.5 μl such that the final concentration was 0.3 nM to 50 μM. For the measurement of living cells, 72 hours after the compound treatment, the cells were stored at room temperature for 10 minutes using a CellTiter-Glo luminescent cell-viability agent (Promega), and then the luminescence intensity was measured using a reader (SynergyNeo, Biotek). Each experiment was repeated in triplicate. The result value was calculated by the cell growth ratio (%) compared to the control. A graph was drawn using the GraphPad Prism version 5.0 program, and a GI50 (nM) value was calculated.
(§2) In the cell assay column, LC-2/ad (with CCDC6-RET gene) is a lung cancer cell line, a TT cell line ([…]) is a thyroid cancer cell line, Ba/F3 CCDC6-RET (WT), Ba/F3 KIF5B-RET (WT), and Ba/F3 KIF5B-RET (V804M) are cells in which disease-related traits (CCDC6-RET, KIF5B-RET, and KIF5B-RET (V804M)) are introduced into Ba/F3 cells, and Ba/F3 (naive) is a cell which is not transduced.

[1] = test system: Ba/F3 CCDC6-RET (WT) cells; assay: Cell proliferation inhibition, CellTiter-Glo; assay type: cell-based; details: BaF3/CCDC6-RET, 72 hours
Procedure: as §1, §2

[2] = test system: Ba/F3 KIF5B-RET (V804M) cells; assay: Cell proliferation inhibition, CellTiter-Glo; assay type: cell-based; details: Mus musculus, BaF3, 72 hours
Procedure: as §1, §2

[3] = test system: Ba/F3 KIF5B-RET (WT) cells; assay: Cell proliferation inhibition, CellTiter-Glo; assay type: cell-based; details: Mus musculus, BaF3, 72 hours
Procedure: as §1, §2

TT cells = assay: Cell proliferation inhibition, CellTiter-Glo; assay type: cell-based; details: Homo sapiens; TT thyroid cancer cell line, 72 hours
Procedure: as §1, §2

SMILES: COc1ccc(CN2C3CC2CN(c2ccc(-c4nc(Nc5cc(C)[nH]n5)c5sccc5n4)cn2)C3)cn1 [Example 2, 2-(6-(6-((6-methoxypyridin-3-yl)methyl)-3,6-diazabicyclo [3.1.1]heptan-3-yl)pyridin-3-yl)-N-(5-methyl-1H-pyrazol-3-yl)thieno[3,2-d]pyrimidin-4-amine]
- IC50 (RET (WT)): 12 nM
- GI50 (Ba/F3 (naive) cells): 4380 nM
- GI50 [1]: 49 nM
- GI50 [2]: 14 nM
- GI50 [3]: 11 nM
- GI50 (TT cells): 48 nM

SMILES: COc1ccc(CN2C3CC2CN(c2ccc(-c4nc(Nc5cc(C(F)(F)F)[nH]n5)c5occc5n4)cn2)C3)cn1 [Example 4, 2-(6-(6-((6-methoxypyridin-3-yl)methyl)-3,6-diazabicyclo [3.1.1]heptan-3-yl)pyridin-3-yl)-N-(5-(trifluoromethyl)-1H-pyrazol-3-yl)furo[3,2-d]pyrimidin-4-amine]
- IC50 (RET (WT)): > 15000 nM
- GI50 (Ba/F3 (naive) cells): > 15000 nM
- GI50 [2]: > 15000 nM
- GI50 (TT cells): > 15000 nM

SMILES: COc1ccc(CN2C3CC2CN(c2ccc(-c4nc5c(c(Nc6cc(C)[nH]n6)n4)CCC5)cn2)C3)cn1 [Example 7, 2-(6-(6-((6-methoxypyridin-3-yl)methyl)-3,6-diazabicyclo [3.1.1]heptan-3-yl)pyridin-3-yl)-N-(5-methyl-1H-pyrazol-3-yl)-6,7-dihydro-5H-cyclopenta[d]py-rimidin-4-amine]
- IC50 (RET (WT)): 10 nM
- GI50 (Ba/F3 (naive) cells): 6070 nM
- GI50 [1]: 45 nM
- GI50 [2]: 7 nM
- GI50 [3]: 15 nM
- GI50 (TT cells): 41 nM
